Results from paper PMC3250956, “Functional characterization and analgesic effects of mixed cannabinoid receptor/T-type channel ligands” (Molecular Pain, 2011).
Read-outs that look alike come from different tables or passages of the source.

Key:
Rat CB1 = biological target: T1, Rat CB1 (Rattus norvegicus, UniProt P20272); assay: Radioligand competitive binding, [3H]CP55940, rat brain homogenate; conditions: for Rat CB1 (%) primary radioligand competitive binding: ligand 10 μM, rat brain homogenates
T1 construct: membrane fractions prepared from rat brain homogenate expressing CB1 receptor; from tissue; host or cells: rat brain homogenate
T1 sequence (P20272 whole entry): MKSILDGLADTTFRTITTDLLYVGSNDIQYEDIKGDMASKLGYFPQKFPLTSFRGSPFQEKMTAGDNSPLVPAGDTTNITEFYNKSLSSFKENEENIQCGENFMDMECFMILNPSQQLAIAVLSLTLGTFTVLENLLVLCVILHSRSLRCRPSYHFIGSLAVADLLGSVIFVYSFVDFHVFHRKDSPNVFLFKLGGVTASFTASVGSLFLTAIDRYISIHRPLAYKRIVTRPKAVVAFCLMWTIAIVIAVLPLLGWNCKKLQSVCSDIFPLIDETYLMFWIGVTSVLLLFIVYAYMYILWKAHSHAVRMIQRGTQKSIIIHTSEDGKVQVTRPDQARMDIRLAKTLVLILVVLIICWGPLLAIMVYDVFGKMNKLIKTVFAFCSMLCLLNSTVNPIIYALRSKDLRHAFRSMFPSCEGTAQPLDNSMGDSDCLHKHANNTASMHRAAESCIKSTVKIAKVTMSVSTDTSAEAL
Method: (§1) CB1 and CB2 radioligand binding data were obtained using National Institute of Mental Health (NIMH) Psychoactive Drug Screening Program (PDSP) resources as described earlier. Compounds were screened in a competitive binding experiment using, respectively, membrane fractions prepared from rat brain homogenate expressing CB1 receptor and HEK293 cells expressing the human CB2 receptor. Experiments were conducted at a range of different concentrations and in duplicate. The competition binding experiment for CB1 and CB2 was performed in 96 well plates containing Standard Binding Buffer (50 mM Tris HCl, 1 mM EDTA, 3 mM MgCl2, 5 mg/ml fatty acid-free BSA, pH 7.4). The radioligand was [^3H]CP55940, and the reference compound was CP55940. A solution of the compound to be tested was prepared as a 1 mg/ml stock in DMSO and then diluted in Standard Binding Buffer by serial dilution. Radioligand was diluted to five times the assay concentration in Standard Binding Buffer. Aliquots (50 μl) of radioligand were dispensed into the wells of a 96-well plate containing 100 μl of Standard Binding Buffer. Then, duplicate 50-μl aliquots of the test and reference compound dilutions were added. Finally, crude membrane fractions of cells were resuspended in 3 ml of chilled Standard Binding Buffer and homogenized by several passages through a 26 gauge needle, then 50 μl were dispensed into each well. The 250-μl reactions were incubated at room temperature for 1.5 hours, and then harvested by rapid filtration onto Whatman GF/B glass fiber filters pre-soaked with 0.3% polyethyleneimine using a 96-well Brandel harverster. Four rapid 500-μl washes were performed. Filters were placed in 6-ml scintillation tubes and allowed to dry overnight. Bound radioactivity was harvested onto 0.3% polyethyleneimine-treated, 96-well filter mats using a 96-well Filtermate harvester. The filter mats were dried, then scintillant was melted onto the filters and the radioactivity retained on the filters counted in a Microbeta scintillation counter. Raw data (dpm) representing total radioligand binding (i.e., specific + non-specific binding) were plotted as a function of the logarithm of the molar concentration of the competitor (i.e., test or reference compound). Non-linear regression of the normalized (i.e., percent radioligand binding compared to that observed in the absence of test or reference compound) raw data was performed in Prism 4.0 (GraphPad Software) using the built-in three parameter logistic model describing ligand competition binding to radioligand-labeled sites: y = bottom + [(top-bottom)/(1 + 10 × -logIC50)] where bottom equals the residual radioligand binding measured in the presence of 10 μM reference compound (i.e., non-specific binding) and top equals the total radioligand binding observed in the absence of competitor. The log IC50 (i.e., the log of the ligand concentration that reduces radioligand binding by 50%) is thus estimated from the data and used to obtain the Ki by applying the Cheng-Prusoff approximation: Ki = IC50/(1 + [ligand]/KD) where [ligand] equals the assay radioligand concentration and KD equals the affinity constant of the radioligand for the target receptor.

Human CB2 [1] = biological target: T2, Human CB2 (Homo sapiens, UniProt P34972); assay: GTPγ[35S] functional assay, CHO cell membrane extracts; type: biochemical; parameters: expressed in transfected cells; host or cells: CHO cells (membrane extracts); conditions: for Emax: read-out: GTPγ[35S] functional assays Human CB2 Emax
T2 sequence (P34972 whole entry): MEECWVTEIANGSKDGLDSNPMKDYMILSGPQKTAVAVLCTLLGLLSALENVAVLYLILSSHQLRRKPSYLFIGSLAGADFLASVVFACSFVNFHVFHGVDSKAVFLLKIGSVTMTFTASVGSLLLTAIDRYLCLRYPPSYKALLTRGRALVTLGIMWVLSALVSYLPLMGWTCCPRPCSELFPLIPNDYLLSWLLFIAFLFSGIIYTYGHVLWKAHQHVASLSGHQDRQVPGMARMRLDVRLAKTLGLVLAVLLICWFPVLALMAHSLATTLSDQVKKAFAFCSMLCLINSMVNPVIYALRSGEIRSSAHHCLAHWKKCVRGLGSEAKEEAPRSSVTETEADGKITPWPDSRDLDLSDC

rat 5-HT2C = biological target: T3, rat 5-HT2C (Rattus norvegicus, UniProt P08909); assay: Primary radioligand competitive binding assay, [3H]mesulergine; conditions: ligand 10 μM, HEK293 cells
T3 construct: expressed in transfected cells; host or cells: HEK293 (Flp-In system, pcDNA5.0FRT)
T3 sequence (P08909 33-460): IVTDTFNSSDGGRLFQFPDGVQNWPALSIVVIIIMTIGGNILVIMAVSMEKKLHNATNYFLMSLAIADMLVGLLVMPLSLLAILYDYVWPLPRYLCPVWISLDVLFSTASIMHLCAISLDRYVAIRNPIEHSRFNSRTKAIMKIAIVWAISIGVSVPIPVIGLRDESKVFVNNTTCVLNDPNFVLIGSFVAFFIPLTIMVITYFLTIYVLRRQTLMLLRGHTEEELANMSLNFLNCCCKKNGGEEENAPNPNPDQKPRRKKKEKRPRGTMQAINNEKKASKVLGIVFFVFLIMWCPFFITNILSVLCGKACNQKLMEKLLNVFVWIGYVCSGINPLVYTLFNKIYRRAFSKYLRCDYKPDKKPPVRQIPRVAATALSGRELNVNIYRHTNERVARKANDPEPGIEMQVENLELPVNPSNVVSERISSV
Method: (§2) HEK293 cells and CHO cells were used in the radioligand binding assay while tsA-201 cells were used in the electrophysiological study. Human CB2, human 5-HT2A, rat 5-HT2C used in the binding studies were cloned into pcDNA5.0FRT and cell lines were made using the FlpIn system from Invitrogen. tsA-201 cell culture and transient calcium channel transfection were performed as described previously. In brief, tsA-201 cells were transfected using the calcium phosphate method. Cav3.1, 3.2 and 3.3 α1 subunits were transfected individually with yellow fluorescent protein as a transfection marker.
(§3) Radioligand binding data were obtained using National Institute of Mental Health's Psychoactive Drug Screening Program (NIMH/PDSP) using the same protocol described for CB1 and CB2 binding experiments. Transfected HEK293 (human 5-HT2A or rat 5-HT2C) cells were used. The radioligands were [^3H]ketanserin (0.5 nM) and [^3H]mesulergine (0.5 nM) for respectively 5-HT2A and 5-HT2C experiments. Non-specific binding was determined in the presence of 10 μM chlorpromazine for both 5-HT2A and 5-HT2C binding experiments. Cells were harvested and homogenized in 50 mM Tris HCl, 10 mM MgCl2, 0.1 mM EDTA, pH 7.4. Incubation of radioreceptor binding assay mixtures was 1.5 hours at room temperature in the dark.

Human CB2 [2] = biological target: T2, Human CB2; assay: Radioligand competitive binding, [3H]CP55940, HEK293 cells; parameters: expressed in transfected cells; conditions: for Human CB2 (%) primary radioligand competitive binding: ligand 10 μM, HEK293 cells
Method: as §2, §1

Human CB1 = Human CB1 (Homo sapiens, UniProt P21554); assay: GTPγ[35S] functional assay, CHO cell membrane extracts; parameters: Emax: dose or concentration left out as unconfirmed
Sequence of Human CB1 (P21554 whole entry): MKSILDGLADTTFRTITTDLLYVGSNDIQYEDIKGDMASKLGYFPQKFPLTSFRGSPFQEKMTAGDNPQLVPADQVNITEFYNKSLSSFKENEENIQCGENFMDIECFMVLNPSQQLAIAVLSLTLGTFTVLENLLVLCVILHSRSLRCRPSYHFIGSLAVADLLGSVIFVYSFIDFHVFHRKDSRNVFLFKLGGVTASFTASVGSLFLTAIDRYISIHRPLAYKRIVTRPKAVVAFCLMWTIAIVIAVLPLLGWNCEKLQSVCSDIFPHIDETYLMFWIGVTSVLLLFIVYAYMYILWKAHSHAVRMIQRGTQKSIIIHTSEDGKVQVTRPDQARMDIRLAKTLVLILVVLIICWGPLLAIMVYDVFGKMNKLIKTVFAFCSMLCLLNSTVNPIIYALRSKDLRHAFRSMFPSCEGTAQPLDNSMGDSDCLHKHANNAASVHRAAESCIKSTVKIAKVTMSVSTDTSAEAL
Method: Functional activity was evaluated using GTPγ[^35S] assay in CHO cell membrane extracts expressing recombinant human CB1 or CB2 receptors as we previously described [51]. Compounds were solubilized in 100% DMSO at a concentration of 10 mM within 4 hours of the first testing session. A predilution for the dose response curve was performed in 100% DMSO and then diluted 100 fold in assay buffer at a concentration 2 fold higher than the concentration to be tested. […] Membranes were mixed with GDP diluted in assay buffer to give 30 μM solution (volume:volume) and incubated for at least 15 min on ice. In parallel, GTPγ[^35S] (GE Healthcare, Catalogue number SJ1308) were mixed with the beads (PVT-WGA (GE Healthcare, RPNQ001)), diluted in assay buffer at 50 mg/ml (0.5 mg/10 μl) (volume:volume) just before starting the reaction. The following reagents were successively added in the wells of an Optiplate (Perkin Elmer): 50 μl of ligand, 20 μl of the membranes:GDP mix, 10 μl of assay buffer for agonist testing, and 20 μl of the GTPγ[^35S]:beads mix. The plates were covered with a topseal, shacked on an orbital shaker for 2 min, and then incubated for 1 hour at room temperature. Then the plates were centrifuged for 10 min at 2000 rpm and counted for 1 min/well with a PerkinElmer TopCount reader. […] For replicate determinations, the maximum variability tolerated in the test was of ± 20% around the average of the replicates.

human 5-HT2A = biological target: T4, human 5-HT2A (Homo sapiens, UniProt P28223); assay: Primary radioligand competitive binding assay, [3H]ketanserin; conditions: ligand 10 μM, HEK293 cells
T4 construct: expressed in transfected cells; host or cells: HEK293 (Flp-In system, pcDNA5.0FRT)
T4 sequence (P28223 whole entry): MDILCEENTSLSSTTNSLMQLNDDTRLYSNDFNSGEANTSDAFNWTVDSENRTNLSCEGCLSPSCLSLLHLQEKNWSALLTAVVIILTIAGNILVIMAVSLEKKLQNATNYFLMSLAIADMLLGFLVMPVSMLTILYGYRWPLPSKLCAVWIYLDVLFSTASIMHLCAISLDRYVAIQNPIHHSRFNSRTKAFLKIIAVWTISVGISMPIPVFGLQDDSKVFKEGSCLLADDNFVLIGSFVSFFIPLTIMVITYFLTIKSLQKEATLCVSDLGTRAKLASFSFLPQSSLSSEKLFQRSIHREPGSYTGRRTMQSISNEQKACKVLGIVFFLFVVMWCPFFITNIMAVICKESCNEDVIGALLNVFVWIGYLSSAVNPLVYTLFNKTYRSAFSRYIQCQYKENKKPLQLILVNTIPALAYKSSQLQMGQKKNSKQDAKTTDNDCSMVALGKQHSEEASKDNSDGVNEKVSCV
Method: as §2, §3

N-type calcium channels = biological target: T5, N-type calcium channels (Homo sapiens, UniProt Q00975); assay: Whole-cell patch-clamp on N-type calcium channels; type: cell-based; conditions: n = 5, read-out: effect on N-type calcium channels (inhibition)
T5 construct: expressed in transfected cells; host or cells: tsA-201 cells (general electrophysiology statement)

Compound | Ki (Rat CB1; NA: not active at 1 μM, read-out: Mean Ki Rat CB1) | Rat CB1 (%) primary radioligand competitive binding (Rat CB1) | EC50 (Human CB2 [1]) | Emax (Human CB2 [1]) | Rat 5-HT2C (%) primary radioligand competitive binding (rat 5-HT2C) | Ki (Human CB2 [2]; NA: not active at 1 μM, read-out: Mean Ki Human CB2) | Human CB2 (%) primary radioligand competitive binding (Human CB2 [2]) | EC50 (Human CB1) | Emax (Human CB1; read-out: GTPγ[35S] functional assays Human CB1 Emax) | Human 5-HT2A (%) primary radioligand competitive binding (human 5-HT2A) | inhibition at 10 µM (N-type calcium channels) | Ki (Rat CB1) | Ki (Human CB2 [2])
CCCCCn1c2ccc(C(=O)N3CCCCC3)cc2c2ccc(OC)cc21 [NMP-4] | 12.8 ± 1.8 nM | 99.3% | 9.8 ± 0.3 nM | -76.4% | -9.3% | 7.5 ± 0.7 nM | 104.4% | 118 ± 4 nM | 30.4% | 23.9% |  |  | 
CCCCCn1c2c(c3ccc(OC)cc31)CN(C(=O)c1ccccc1)CC2 [NMP-144] |  | 67.4% | 35.7 ± 13.9 nM | -48.1% | 13% |  | 90.6% |  |  | -5.2% | 20% | 1140 ± 264 nM | 706 ± 110 nM
